# Assays:
# CDK2/Cyclin E1(14-475) = CDK2/Cyclin E1(14-475) (Homo sapiens, UniProt P24941); test: Caliper LabChip EZ Reader mobility shift assay, inhibition of CDK2/Cyclin E1 activity; type: biochemical; settings: class symbols A-D
# Outline: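 CDK2/Cyclin E1(14-475) pre-incubated 30 min with compound and ATP, then reaction started with 5-FAM-QSPKKG-CONH2; final 2.5 nM enzyme, 100 μM ATP, 1.5 μM peptide, HEPES pH 7.5. Stopped with EDTA after 100 min; substrate/product conversion by capillary electrophoresis mobility shift, IC50 from four-parameter fit.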
# Kuramochi cells = test: BrdU cell proliferation assay (colorimetric ELISA), Kuramochi cells; type: cell-based; settings: class symbols A-D
# Outline: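 Kuramochi cells (2,000/well, with Kuramochi RB^KO cells as a specificity control) were treated with a 4-point, 3-fold dilution series made from 10 mM compound stocks and left for 4 days at 37 °C. Proliferation was measured by 1 h BrdU labelling, then anti-BrdU peroxidase ELISA read at 450 nm. Signals were background-subtracted and normalized to DMSO wells.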
Compound,IC50 (CDK2/Cyclin E1(14-475)),IC50 (Kuramochi cells)
CNC(=O)[C@H](CCCc1ccccc1)NC(=O)C1CN(C(=O)c2ccc3cccn3c2)CC2CN(C(=O)c3ccc(OC(C)C)c(OC)c3)CC21 (some centres unmarked) [I-199],> 10 µM,> 10 µM
CNC(=O)[C@H](CCCc1ccccc1)NC(=O)C1CN(C(=O)Cc2c(C)[nH]c3ccccc23)CC2CN(C(=O)c3ccc(OC(C)C)c(OC)c3)CC21 (some centres unmarked) [I-201],0.5 to 5 µM,> 10 µM
CNC(=O)[C@H](CCCc1ccccc1)NC(=O)C1CN(C(=O)Cc2ccncc2)CC2CN(C(=O)c3ccc(OC(C)C)c(OC)c3)CC21 (some centres unmarked) [I-202],> 10 µM,> 10 µM
CNC(=O)[C@H](CCCc1ccccc1)NC(=O)C1CN(C(=O)c2ccc(C#N)cn2)CC2CN(C(=O)c3ccc(OC(C)C)c(OC)c3)CC21 (some centres unmarked) [I-208],> 10 µM,> 10 µM
CNC(=O)[C@H](CCCc1ccccc1)NC(=O)C1CN(C(=O)Cc2c[nH]c3cnccc23)CC2CN(C(=O)c3ccc(OC(C)C)c(OC)c3)CC21 (some centres unmarked) [I-212],> 10 µM,> 10 µM
CNC(=O)[C@H](CCCc1ccccc1)NC(=O)C1CN(C(=O)c2cccc3cc[nH]c23)CC2CN(C(=O)c3ccc(OC(C)C)c(OC)c3)CC21 (some centres unmarked) [I-213],> 10 µM,> 10 µM
CNC(=O)[C@H](CCCc1ccccc1)NC(=O)C1CN(C(=O)c2ccc(OC)nn2)CC2CN(C(=O)c3ccc(OC(C)C)c(OC)c3)CC21 (some centres unmarked) [I-216],> 10 µM,> 10 µM
CNC(=O)[C@H](CCCc1ccccc1)NC(=O)C1CN(C(=O)Cc2cn(CCOC)c3ccccc23)CC2CN(C(=O)c3ccc(OC(C)C)c(OC)c3)CC21 (some centres unmarked) [I-218],> 10 µM,> 10 µM
CNC(=O)[C@H](CCCc1ccccc1)NC(=O)C1CN(C(=O)Cc2c[nH]c3ccc(Cl)cc23)CC2CN(C(=O)c3ccc(OC(C)C)c(OC)c3)CC21 (some centres unmarked) [I-220],> 10 µM,> 10 µM
CNC(=O)[C@H](CCCc1ccccc1)NC(=O)C1CN(C(=O)Cc2cn(C)c3cc(Cl)ccc23)CC2CN(C(=O)c3ccc(OC(C)C)c(OC)c3)CC21 (some centres unmarked) [I-225],0.5 to 5 µM,> 10 µM
CNC(=O)[C@H](CCCc1ccccc1)NC(=O)C1CN(C(=O)Cc2c[nH]c3cc(Cl)c(Cl)cc23)CC2CN(C(=O)c3ccc(OC(C)C)c(OC)c3)CC21 (some centres unmarked) [I-227],≤ 0.5 µM,> 10 µM
CNC(=O)[C@H](CCCc1ccccc1)NC(=O)C1CN(C(=O)Cc2cnccn2)CC2CN(C(=O)c3ccc(OC(C)C)c(OC)c3)CC21 (some centres unmarked) [I-230],> 10 µM,> 10 µM
CNC(=O)[C@H](CCCc1ccccc1)NC(=O)C1CN(C(=O)Cc2c[nH]c3cc(C)ccc23)CC2CN(C(=O)c3ccc(OC(C)C)c(OC)c3)CC21 (some centres unmarked) [I-231],5 to 10 µM,> 10 µM
CNC(=O)[C@H](CCCc1ccccc1)NC(=O)C1CN(C(=O)Cc2c[nH]c3cc(OCC4CC4)ccc23)CC2CN(C(=O)c3ccc(OC(C)C)c(OC)c3)CC21 (some centres unmarked) [I-234],> 10 µM,> 10 µM
CNC(=O)[C@H](CCCc1ccccc1)NC(=O)C1CN(C(=O)Cc2c[nH]c3ccc(Br)cc23)CC2CN(C(=O)c3ccc(OC(C)C)c(OC)c3)CC21 (some centres unmarked) [I-237],≤ 0.5 µM,> 10 µM
"COc1cc(C(=O)N2CC3CN(C(=O)Cc4c[nH]c5cc(Cl)ccc45)CC(C(=O)Nc4cncc(Cc5ccccc5)c4)C3C2)ccc1OC(C)C (centres unmarked) [I-238, N-(5-benzylpyridin-3-yl)-5-(2-(6-chloro-1H-indol-3-yl)acetyl)-2-(4-isopropoxy-3-methoxybenzoyl)octahydro-1H-pyrrolo[3,4-c]pyridine-7-carboxamide]",0.5 to 5 µM,0.5 to 5 µM
COc1cc(C(=O)N2CC3CN(C(=O)Cc4c[nH]c5cc(Cl)ccc45)CC(C(=O)Nc4ccnc(Cc5ccccc5)c4)C3C2)ccc1OC(C)C (centres unmarked) [I-239],0.5 to 5 µM,> 10 µM
COc1cc(C(=O)N2CC3CN(C(=O)Cc4c[nH]c5cc(Cl)ccc45)CC(C(=O)Nc4ccc(Cc5ccccc5)nc4)C3C2)ccc1OC(C)C (centres unmarked) [I-241],> 10 µM,> 10 µM
"CNC(=O)[C@@H](NC(=O)C1CN(C(=O)Cc2c[nH]c3cc(Cl)ccc23)CC2CN(C(=O)c3ccc(OC4CC4)cc3)CC21)[C@@H](C)OCC1CCCCC1 (stereo partly drawn) [I-242, 5-(2-(6-chloro-1H-indol-3-yl)acetyl)-N-((2S,3R)-3-(cyclohexylmethoxy)-1-(methylamino)-1-oxobutan-2-yl)-2-(4-cyclopropoxybenzoyl)octahydro-1H-pyrrolo[3,4-c]pyridine-7-carboxamide]",0.5 to 5 µM,> 10 µM
C[C@H](OCc1ccc(F)cc1)[C@H](NC(=O)C1CN(C(=O)Cc2c[nH]c3cc(Cl)ccc23)CC2CN(C(=O)c3ccc(OC4CC4)cc3)CC21)C(N)=O (some centres unmarked) [I-243],0.5 to 5 µM,> 10 µM
CNC(=O)[C@H](CCCc1ccccc1)NC(=O)C1CN(C(=O)Cc2c[nH]c3cc(OC)ccc23)CC2CN(C(=O)c3ccc(C(F)(F)F)c(Cl)c3)CC21 (some centres unmarked) [I-248],> 10 µM,> 10 µM

# Continued, in another order:
IC50 (CDK2/Cyclin E1(14-475)),Compound,IC50 (Kuramochi cells)
5 to 10 µM,CNC(=O)[C@H](CCCc1ccccc1)NC(=O)C1CN(C(=O)Cc2c[nH]c3ccc(OC)cc23)CC2CN(C(=O)c3ccc(OC(C)C)c(OC)c3)CC21 (some centres unmarked) [I-200],> 10 µM
0.5 to 5 µM,CNC(=O)[C@H](CCCc1ccccc1)NC(=O)C1CN(C(=O)Cc2c[nH]c3cc(C#N)ccc23)CC2CN(C(=O)c3ccc(OC(C)C)c(OC)c3)CC21 (some centres unmarked) [I-203],> 10 µM
0.5 to 5 µM,CNC(=O)[C@H](CCCc1ccccc1)NC(=O)C1CN(C(=O)Cc2coc3cc(Cl)ccc23)CC2CN(C(=O)c3ccc(OC(C)C)c(OC)c3)CC21 (some centres unmarked) [I-204],> 10 µM
0.5 to 5 µM,CNC(=O)[C@H](CCCc1ccccc1)NC(=O)C1CN(C(=O)Cc2n[nH]c3cc(Cl)ccc23)CC2CN(C(=O)c3ccc(OC(C)C)c(OC)c3)CC21 (some centres unmarked) [I-205],> 10 µM
> 10 µM,CNC(=O)[C@H](CCCc1ccccc1)NC(=O)C1CN(C(=O)c2cncs2)CC2CN(C(=O)c3ccc(OC(C)C)c(OC)c3)CC21 (some centres unmarked) [I-206],> 10 µM
> 10 µM,CNC(=O)[C@H](CCCc1ccccc1)NC(=O)C1CN(C(=O)C2CCOCC2)CC2CN(C(=O)c3ccc(OC(C)C)c(OC)c3)CC21 (some centres unmarked) [I-207],> 10 µM
> 10 µM,CNC(=O)[C@H](CCCc1ccccc1)NC(=O)C1CN(C(=O)c2cccc(CO)n2)CC2CN(C(=O)c3ccc(OC(C)C)c(OC)c3)CC21 (some centres unmarked) [I-209],> 10 µM
> 10 µM,CNC(=O)[C@H](CCCc1ccccc1)NC(=O)C1CN(C(=O)c2cccc(-c3cccnc3)c2)CC2CN(C(=O)c3ccc(OC(C)C)c(OC)c3)CC21 (some centres unmarked) [I-210],> 10 µM
> 10 µM,CNC(=O)[C@H](CCCc1ccccc1)NC(=O)C1CN(C(=O)c2cncc(C)n2)CC2CN(C(=O)c3ccc(OC(C)C)c(OC)c3)CC21 (some centres unmarked) [I-211],> 10 µM
> 10 µM,CCc1ccc(C(=O)N2CC3CN(C(=O)c4ccc(OC(C)C)c(OC)c4)CC3C(C(=O)N[C@@H](CCCc3ccccc3)C(=O)NC)C2)nc1 (some centres unmarked) [I-214],> 10 µM
> 10 µM,CNC(=O)[C@H](CCCc1ccccc1)NC(=O)C1CN(C(=O)c2ccn(C)c2)CC2CN(C(=O)c3ccc(OC(C)C)c(OC)c3)CC21 (some centres unmarked) [I-215],> 10 µM
> 10 µM,CNC(=O)[C@H](CCCc1ccccc1)NC(=O)C1CN(C(=O)Cc2c[nH]c3cccc(C)c23)CC2CN(C(=O)c3ccc(OC(C)C)c(OC)c3)CC21 (some centres unmarked) [I-217],> 10 µM
0.5 to 5 µM,CNC(=O)[C@H](CCCc1ccccc1)NC(=O)C1CN(C(=O)Cc2c[nH]c3ccc(C)cc23)CC2CN(C(=O)c3ccc(OC(C)C)c(OC)c3)CC21 (some centres unmarked) [I-219],> 10 µM
> 10 µM,CNC(=O)[C@H](CCCc1ccccc1)NC(=O)C1CN(C(=O)Cc2c[nH]c3ccccc23)CC2CN(C(=O)c3ccc(OC(C)C)c(OC)c3)CC21 (some centres unmarked) [I-223],> 10 µM
0.5 to 5 µM,CNC(=O)[C@H](CCCc1ccccc1)NC(=O)C1CN(C(=O)C(C)c2c[nH]c3cc(Cl)ccc23)CC2CN(C(=O)c3ccc(OC(C)C)c(OC)c3)CC21 (some centres unmarked) [I-226],5 to 10 µM
> 10 µM,CNC(=O)[C@H](CCCc1ccccc1)NC(=O)C1CN(C(=O)c2c[nH]c3cc(C)ccc23)CC2CN(C(=O)c3ccc(OC(C)C)c(OC)c3)CC21 (some centres unmarked) [I-228],> 10 µM
> 10 µM,CNC(=O)[C@H](CCCc1ccccc1)NC(=O)C1CN(C(=O)Cc2c[nH]c3c(OC)cccc23)CC2CN(C(=O)c3ccc(OC(C)C)c(OC)c3)CC21 (some centres unmarked) [I-229],> 10 µM
0.5 to 5 µM,COc1cc(C(=O)N2CC3CN(C(=O)Cc4c[nH]c5cc(Cl)ccc45)CC(C(=O)Nc4cncc(Oc5ccccc5)c4)C3C2)ccc1OC(C)C (centres unmarked) [I-240],> 10 µM
> 10 µM,C[C@@H](OCc1ccc(F)cc1)[C@H](NC(=O)C1CN(C(=O)Cc2c[nH]c3cc(Cl)ccc23)CC2CN(C(=O)c3ccc(OC4CC4)cc3)CC21)C(N)=O (some centres unmarked) [I-244],> 10 µM
> 10 µM,C[C@H](OCc1ccc(F)cc1)[C@@H](NC(=O)C1CN(C(=O)Cc2c[nH]c3cc(Cl)ccc23)CC2CN(C(=O)c3ccc(OC4CC4)cc3)CC21)C(N)=O (some centres unmarked) [I-245],> 10 µM
> 10 µM,C[C@@H](OCc1ccc(F)cc1)[C@@H](NC(=O)C1CN(C(=O)Cc2c[nH]c3cc(Cl)ccc23)CC2CN(C(=O)c3ccc(OC4CC4)cc3)CC21)C(N)=O (some centres unmarked) [I-246],> 10 µM
> 10 µM,"CNC(=O)[C@H](CCCc1ccccc1)NC(=O)C1CN(C(=O)Cc2c[nH]c3cc(OC)ccc23)CC2CN(C(=O)c3ccc(Cl)c(Cl)c3)CC21 (stereo partly drawn) [I-247, 2-(3,4-dichlorobenzoyl)-5-(2-(6-methoxy-1H-indol-3-yl)acetyl)-N—((S)-1-(methylamino)-1-oxo-5-phenylpentan-2-yl)octahydro-1H-pyrrolo[3,4-c]pyridine-7-carboxamide]",> 10 µM
